The values that follow come from patent publication US9108957B2 (MITSUBISHI TANABE PHARMA CORPORATION, priority 2009, dated 2015).

The assay deals with human recombinant TPK1 (Homo sapiens, UniProt P49841). The assay can be described thus: Inhibitory activity against P-GS1 phosphorylation by TPK1 (Kinase Glo luminescence). It is filed as biochemical. The settings on record: 7.5 μM P-GS1, 10 μM ATP, 25° C. for 16 hours, Kinase Glo Reagent luminescent signal. In short, it runs like this:
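Human recombinant TPK1 phosphorylated 7.5 μM P-GS1 with 10 μM ATP in 100 mM HEPES-NaOH pH 7.2 with Mg, EGTA, DTT, Tween 20 and 1% DMSO final, for 16 h at 25° C. Remaining ATP was read by Kinase Glo luminescence. IC50 was normalised to no-enzyme (0%) and no-compound (100%) controls.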

Chain of human recombinant TPK1 (P49841 whole entry): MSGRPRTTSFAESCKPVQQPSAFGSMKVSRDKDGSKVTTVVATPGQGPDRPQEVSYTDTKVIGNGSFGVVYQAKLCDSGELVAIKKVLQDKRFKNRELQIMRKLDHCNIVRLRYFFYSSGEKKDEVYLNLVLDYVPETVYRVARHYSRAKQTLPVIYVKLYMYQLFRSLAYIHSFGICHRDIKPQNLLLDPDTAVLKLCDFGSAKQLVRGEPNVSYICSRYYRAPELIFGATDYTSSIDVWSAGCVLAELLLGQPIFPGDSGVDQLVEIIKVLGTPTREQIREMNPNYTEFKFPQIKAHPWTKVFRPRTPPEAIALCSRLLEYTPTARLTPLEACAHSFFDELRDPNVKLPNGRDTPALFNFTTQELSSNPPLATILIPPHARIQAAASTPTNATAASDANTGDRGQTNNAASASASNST

In the case of `Cn1c(N2CCOC(c3ccccc3F)CC2)nc(-c2ccncn2)cc1=O` (stereo not drawn) [Compound A105, 2-[7-(2-fluorophenyl)-1,4-oxazepan-4-yl]-3-methyl-6-(pyrimidin-4-yl)pyrimidin-4(3H)-one], the IC50 came to 0.0187 µM.

Regarding `Cn1c(N2CCCO[C@@H](c3cccc(Br)c3)C2)nc(-c2ccncn2)cc1=O` [Compound A079, (S)-2-[2-(3-bromophenyl)-1,4-oxazepan-4-yl]-3-methyl-6-(pyrimidin-4-yl)pyrimidin-4(3H)-one], the IC50 came to 0.0073 µM.

For `Cc1noc(-c2ccc([C@H]3CN(c4nc(-c5ccncc5)cc(=O)n4C)CCCO3)cc2)n1` [Compound A036, (S)-2-[2-[4-(3-methyl-1,2,4-oxadiazol-5-yl)-phenyl]-1,4-oxazepan-4-yl]-3-methyl-6-(pyridin-4-yl)pyrimidin-4(3H)-one], the IC50 came out at 0.0287 µM.

`Cn1c(N2CCOC(c3ccc(-c4ncon4)cc3)CC2)nc(-c2ccncc2F)cc1=O` (single isomer, unassigned; (+)) [Compound A089]: the IC50 is 0.0054 µM.

`Cc1nc(-c2cccc([C@H]3CN(c4nc(-c5ccncn5)cc(=O)n4C)CCCO3)c2)no1` [Compound A030, (S)-2-[2-[3-(5-methyl-1,2,4-oxadiazol-3-yl)-phenyl]-1,4-oxazepan-4-yl]-3-methyl-6-(pyrimidin-4-yl)pyrimidin-4(3H)-one]: the IC50 was determined as 0.0198 µM.

As for `COc1ccccc1C1CCN(c2nc(-c3ccncn3)cc(=O)n2C)CCO1` (stereo not drawn) [Compound A102, 2-[7-(2-methoxyphenyl)-1,4-oxazepan-4-yl]-3-methyl-6-(pyrimidin-4-yl)pyrimidin-4(3H)-one], the IC50 worked out at 0.0163 µM.

As to `Cn1c(N2CCOC(c3ccc(-c4ncon4)cc3)CC2)nc(-c2ccncc2F)cc1=O` (single isomer, unassigned; (-)) [Compound A104, (−)-2-[7-[4-(1,2,4-oxadiazol-3-yl)-phenyl]-1,4-oxazepan-4-yl]-6-(3-fluoropyridin-4-yl)-3-methylpyrimidin-4(3H)-one], the half-inhibitory concentration (IC50) was 0.0172 µM.

Turning to `Cn1c(N2CCOCCC2c2ccccc2)nc(-c2ccncc2F)cc1=O` (stereo not drawn) [Compound A066, 6-(3-fluoropyridin-4-yl)-3-methyl-2-(5-phenyl-1,4-oxazepan-4-yl)pyrimidin-4(3H)-one], the IC50 turned out to be 0.0055 µM.

As for `Cn1c(N2CCCO[C@@H](c3ccc(F)cc3)C2)nc(-c2ccncn2)cc1=O` [Compound A092, (S)-2-[2-(4-fluorophenyl)-1,4-oxazepan-4-yl]-3-methyl-6-(pyrimidin-4-yl)pyrimidin-4(3H)-one], the IC50 was found to be 0.0083 µM.

`Cn1c(N2CCCOC(c3ccccc3)C2)nc(-c2ccncn2)cc1=O` (stereo not drawn) [Compound A026, 2-(2-phenyl-1,4-oxazepan-4-yl)-3-methyl-6-(pyrimidin-4-yl)pyrimidin-4(3H)-one]: the IC50 turned out to be 0.0146 µM.

Consider `Cc1nc(-c2ccc(C3CCN(c4nc(-c5ccncc5F)cc(=O)n4C)CCO3)cc2)no1` (single isomer, unassigned; (+)) [Compound A091, (+)-2-[7-[4-(5-methyl-1,2,4-oxadiazol-3-yl)-phenyl]-1,4-oxazepan-4-yl]-6-(3-fluoropyridin-4-yl)-3-methylpyrimidin-4(3H)-one], for which the IC50 turned out to be 0.0068 µM.

As for `CC1CN(c2nc(-c3ccncc3F)cc(=O)n2C)CCCO1` (stereo not drawn) [Compound A041, 2-(2-methyl-1,4-oxazepan-4-yl)-6-(3-fluoropyridin-4-yl)-3-methylpyrimidin-4(3H)-one], the concentration for half-maximal inhibition (IC50) was found to be 0.0348 µM.

Turning to `Cc1nc(-c2ccc([C@@H]3CN(c4nc(-c5ccncc5F)cc(=O)n4C)CCCO3)cc2)no1` [Compound A052, (R)-2-[2-[4-(5-methyl-1,2,4-oxadiazol-3-yl)-phenyl]-1,4-oxazepan-4-yl]-6-(3-fluoropyridin-4-yl)-3-methylpyrimidin-4(3H)-one], the IC50 turned out to be 0.0921 µM.

For the compound `Cn1c(N2CCCO[C@@H](c3ccc(C#N)cc3)C2)nc(-c2ccncc2F)cc1=O` [Compound A013, (S)-2-[2-(4-cyanophenyl)-1,4-oxazepan-4-yl]-6-(3-fluoropyridin-4-yl)-3-methylpyrimidin-4(3H)-one], the IC50 stood at 0.0073 µM.

Consider `Cn1c(N2CCCO[C@H](c3ccc(C(N)=O)cc3)C2)nc(-c2ccncn2)cc1=O` [Compound A060, (R)-2-[2-(4-aminocarbonylphenyl)-1,4-oxazepan-4-yl]-3-methyl-6-(pyrimidin-4-yl)pyrimidin-4(3H)-one], for which the IC50 is 0.252 µM.

Consider `Cc1nc(-c2ccc([C@@H]3COCCN(c4nc(-c5ccncn5)cc(=O)n4C)C3)cc2)no1` [Compound A085, (S)-2-[6-[4-(5-methyl-1,2,4-oxadiazol-3-yl)-phenyl]-1,4-oxazepan-4-yl]-3-methyl-6-(pyrimidin-4-yl)pyrimidin-4(3H)-one], for which the IC50 worked out at 0.0167 µM.

Take `Cn1c(N2CCOCC(c3ccc(-c4ncno4)cc3)C2)nc(-c2ccncn2)cc1=O` (stereo not drawn) [Compound A080, 2-[6-[4-(1,2,4-oxadiazol-5-yl)-phenyl]-1,4-oxazepan-4-yl]-3-methyl-6-(pyrimidin-4-yl)pyrimidin-4(3H)-one]: the IC50 is 0.0108 µM.

Turning to `Cc1nc(-c2ccc(C3CCN(c4nc(-c5ccncn5)cc(=O)n4C)CCO3)cc2)no1` (single isomer, unassigned; (-)) [Compound A112, (−)-2-[7-[4-(5-methyl-1,2,4-oxadiazol-3-yl)-phenyl]-1,4-oxazepan-4-yl]-3-methyl-6-(pyrimidin-4-yl)pyrimidin-4(3H)-one], the IC50 is 0.03 µM.

As to `Cn1c(N2CCOC[C@@H](c3ccc(Br)cc3)C2)nc(-c2ccncn2)cc1=O` [Compound A074, (S)-2-[6-(4-bromophenyl)-1,4-oxazepan-4-yl]-3-methyl-6-(pyrimidin-4-yl)pyrimidin-4(3H)-one], the IC50 was determined as 0.0012 µM.

With `Cn1c(N2CCCO[C@@H](c3ccc(C#N)cc3)C2)nc(-c2ccncc2)cc1=O` [Compound A037, (S)-2-(2-(4-cyanophenyl)-1,4-oxazepan-4-yl)-3-methyl-6-(pyridin-4-yl)pyrimidin-4(3H)-one], the IC50 is 0.0308 µM.

Regarding `Cn1c(N2CCOCC(c3ccc(-c4ncon4)cc3)C2)nc(-c2ccncn2)cc1=O` (stereo not drawn) [Compound A082, 2-[6-[4-(1,2,4-oxadiazol-3-yl)-phenyl]-1,4-oxazepan-4-yl]-3-methyl-6-(pyrimidin-4-yl)-pyrimidin-4(3H)-one], the IC50 stood at 0.0132 µM.
